Measurements from PMC11589570, “Critical assessment of LC3/GABARAP ligands used for degrader development and ligandability of LC3/GABARAP binding pockets” (Nature Communications, 2024).
Values joined by “and” are separate entries in the source; they are usually repeats but may differ in a detail not shown here. Equal entries are not always repeated.

How the values were obtained:
[1] = target: GABARAP (Homo sapiens, UniProt O95166); assay: FP assay with Cy5-labelled p62 LIR tracer (protein titration and tracer displacement); assay type: binding; conditions: for normalized FP signal, p62 LIR tracer displacement: GABARAP, listed as AN1; for compound titration GABARAP (displacement curve, FP signal): two replicate columns per compound
[2] = target: LC3C (Homo sapiens, UniProt Q9BXW4); assay: as above; assay type: binding; conditions: for normalized FP signal, p62 LIR tracer displacement: LC3C, listed as AN1; for compound titration LC3C (displacement curve, FP signal): two replicate columns per compound
[3] = target: GABARAPL2 (Homo sapiens, UniProt P60520); assay: as above; conditions: GABARAPL2
[4] = target: GABARAPL1 (Homo sapiens, UniProt Q9H0R8); assay: as above; assay type: binding; conditions: for normalized FP signal, p62 LIR tracer displacement: GABARAPL1; for compound titration GABARAPL1 (displacement curve, FP signal): two replicate columns per compound; for FP tracer displacement curve signal (compound titration): duplicate values
[5] = test system: RPE-1 GFP-LC3B-RPF-LC3∆G reporter cell line; assay: Autophagy flux assay; assay type: cell-based; conditions: rebuttal letter
Excerpt: LC3/GABARAP in vitro, but no attempts are made to replicate the previously reported cellular activity of these compounds. It would be beneficial to know whether these compounds have any effect on autophagy in the authors’ hands, and therefore could act by alternative mechanisms, or whether they […]
Response: We were very concerned that the ligands used for ATTEC development might induce general toxicity in cell lines, as they are based on drugs used in oncology (such as the kinesin inhibitor 10O5) and the isoxazole scaffold often used in the development of multi-targeted kinase inhibitors. However, we have now investigated compounds 1-4 in autophagy flux assays using the RPE-1 GFP-LC3B-RPF-LC3∆G reporter cell line (single clone) as […]
reported in [PMID:37558952].
(RR_Figure 6). The authors of the first manuscript reporting these ligands [PMID: 31666698]
However, due to the potent activity of 8F20 on KIF11, which will have profound effects on cell trafficking and growth, and DCAF11 (AN1, [PMID: 38036533]), we find it unlikely that the effects on autophagy are due to LC3/GABARAP modulation. Due to the lack of target (LC3/GABARAP) binding in vitro and the […]
of this review but have excluded the data in the manuscript.
RR_figure 5: Autophagy flux measurement for 10O5 and AN2. No induction of autophagy or effects (right panels, assessed by Incucyte (Sartorius) life cell imaging) on cell growth was […]
RR_figure 6: Autophagy flux measurement for 8F20 and AN1 show changes in autophagy flux […]
It is not clear how many biological replicates have been performed. For example, the figure legends […]

[6] = log10 concentration [M] -3.82391
[7] = log10 concentration [M] -4.1549
[8] = log10 concentration [M] -4.60206
[9] = log10 concentration [M] -5.30103
[10] = log10 concentration [M] -5.69897
[11] = log10 concentration [M] -6.22185
[12] = log10 concentration [M] -6.69897
[13] = log10 concentration [M] -7.30103
[14] = log10 concentration [M] -7.79588
[15] = log10 concentration [M] -8.08092
[16] = log10 concentration [M] -3.82391, listed as AN1
[17] = log10 concentration [M] -4.1549, listed as AN1
[18] = log10 concentration [M] -4.60206, listed as AN1
[19] = log10 concentration [M] -5.69897, listed as AN1
[20] = log10 concentration [M] -6.22185, listed as AN1
[21] = log10 concentration [M] -7.79588, listed as AN1
[22] = log10 concentration [M] -6.69897, listed as AN1
[23] = log10 concentration [M] -7.30103, listed as AN1
[24] = log10 concentration [M] -8.08092, listed as AN1

GABARAPL2, sequence (P60520 whole entry): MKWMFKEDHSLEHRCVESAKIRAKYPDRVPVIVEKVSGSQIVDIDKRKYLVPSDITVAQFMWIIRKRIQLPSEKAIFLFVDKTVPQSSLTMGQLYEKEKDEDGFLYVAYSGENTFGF
GABARAP, sequence (O95166 1-116): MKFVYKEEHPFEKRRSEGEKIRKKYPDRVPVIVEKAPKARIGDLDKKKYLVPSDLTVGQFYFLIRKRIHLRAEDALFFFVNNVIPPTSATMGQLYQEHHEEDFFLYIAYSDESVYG
LC3C, sequence (Q9BXW4 1-126): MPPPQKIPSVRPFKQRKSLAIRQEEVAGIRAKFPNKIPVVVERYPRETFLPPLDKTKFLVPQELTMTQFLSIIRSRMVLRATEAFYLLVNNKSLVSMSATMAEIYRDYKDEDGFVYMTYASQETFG
GABARAPL1, sequence (Q9H0R8 whole entry): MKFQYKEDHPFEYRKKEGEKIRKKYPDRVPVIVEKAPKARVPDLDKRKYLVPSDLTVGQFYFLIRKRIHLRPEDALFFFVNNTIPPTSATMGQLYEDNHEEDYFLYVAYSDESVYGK

Compound: O=C1Nc2ccc(Br)cc2C1=Cc1cc(O)c(O)c(Br)c1 [compound 1]
- normalized FP signal, p62 LIR tracer displacement [1, 6]: 88.1034 and 91.0345
- normalized FP signal, p62 LIR tracer displacement [1, 7]: 88.6207 and 92.2414
- normalized FP signal, p62 LIR tracer displacement [1, 8]: 90.1724 and 94.8276
- normalized FP signal, p62 LIR tracer displacement ([1]; log10 concentration [M] -5): 93.7931 and 97.069
- normalized FP signal, p62 LIR tracer displacement [1, 9]: 96.0345 and 95.3448
- normalized FP signal, p62 LIR tracer displacement [1, 10]: 85 and 92.069
- normalized FP signal, p62 LIR tracer displacement [1, 11]: 93.4483 and 97.5862
- normalized FP signal, p62 LIR tracer displacement [1, 12]: 98.1034 and 94.3103
- normalized FP signal, p62 LIR tracer displacement [1, 13]: 97.4138 and 96.5517
- normalized FP signal, p62 LIR tracer displacement [1, 14]: 92.4138 and 89.8276
- normalized FP signal, p62 LIR tracer displacement [1, 15]: 89.1379 and 97.2414
- compound titration GABARAP (displacement curve, FP signal) [1, 6]: 88.1034 and 91.0345
- compound titration GABARAP (displacement curve, FP signal) [1, 7]: 88.6207 and 92.2414
- compound titration GABARAP (displacement curve, FP signal) [1, 8]: 90.1724 and 94.8276
- compound titration GABARAP (displacement curve, FP signal) ([1]; log10 concentration [M] -5): 93.7931 and 97.069
- compound titration GABARAP (displacement curve, FP signal) [1, 9]: 96.0345 and 95.3448
- compound titration GABARAP (displacement curve, FP signal) [1, 10]: 85 and 92.069
- compound titration GABARAP (displacement curve, FP signal) [1, 11]: 93.4483 and 97.5862
- compound titration GABARAP (displacement curve, FP signal) [1, 12]: 98.1034 and 94.3103
- compound titration GABARAP (displacement curve, FP signal) [1, 13]: 97.4138 and 96.5517
- compound titration GABARAP (displacement curve, FP signal) [1, 14]: 92.4138 and 89.8276
- compound titration GABARAP (displacement curve, FP signal) [1, 15]: 89.1379 and 97.2414
- normalized FP signal, p62 LIR tracer displacement [2, 6]: 79.6 and 85.8
- normalized FP signal, p62 LIR tracer displacement [2, 7]: 89.2 and 87.8
- normalized FP signal, p62 LIR tracer displacement [2, 8]: 89.4 and 94.4
- normalized FP signal, p62 LIR tracer displacement ([2]; log10 concentration [M] -5): 89.6 and 94
- normalized FP signal, p62 LIR tracer displacement [2, 9]: 93 and 97.8
- normalized FP signal, p62 LIR tracer displacement [2, 10]: 84.2 and 88.6
- normalized FP signal, p62 LIR tracer displacement [2, 11]: 82.6 and 92
- normalized FP signal, p62 LIR tracer displacement [2, 12]: 93.4 and 98.2
- normalized FP signal, p62 LIR tracer displacement [2, 13]: 96.4
- normalized FP signal, p62 LIR tracer displacement [2, 14]: 91.2 and 92.8
- normalized FP signal, p62 LIR tracer displacement [2, 15]: 88.2 and 91.8
- compound titration LC3C (displacement curve, FP signal) [2, 6]: 79.6 and 85.8
- compound titration LC3C (displacement curve, FP signal) [2, 7]: 89.2 and 87.8
- compound titration LC3C (displacement curve, FP signal) [2, 8]: 89.4 and 94.4
- compound titration LC3C (displacement curve, FP signal) ([2]; log10 concentration [M] -5): 89.6 and 94
- compound titration LC3C (displacement curve, FP signal) [2, 9]: 93 and 97.8
- compound titration LC3C (displacement curve, FP signal) [2, 10]: 84.2 and 88.6
- compound titration LC3C (displacement curve, FP signal) [2, 11]: 82.6 and 92
- compound titration LC3C (displacement curve, FP signal) [2, 12]: 93.4 and 98.2
- compound titration LC3C (displacement curve, FP signal) [2, 13]: 96.4
- compound titration LC3C (displacement curve, FP signal) [2, 14]: 91.2 and 92.8
- compound titration LC3C (displacement curve, FP signal) [2, 15]: 88.2 and 91.8
- normalized FP signal, p62 LIR tracer displacement [3, 16]: 91.2 and 81.6
- normalized FP signal, p62 LIR tracer displacement [3, 17]: 91.2 and 92.8
- normalized FP signal, p62 LIR tracer displacement [3, 18]: 92.8 and 98.4
- normalized FP signal, p62 LIR tracer displacement ([3]; log10 concentration [M] -5): 109.2
- normalized FP signal, p62 LIR tracer displacement ([3]; log10 concentration [M] -5.30103, listed as AN1): 91.6 and 94.8
- normalized FP signal, p62 LIR tracer displacement [3, 19]: 82.8 and 89.2
- normalized FP signal, p62 LIR tracer displacement [3, 11]: 88
- normalized FP signal, p62 LIR tracer displacement [3, 20]: 104.4
- normalized FP signal, p62 LIR tracer displacement [3, 12]: 89.6
- normalized FP signal, p62 LIR tracer displacement [3, 13]: 94
- normalized FP signal, p62 LIR tracer displacement [3, 21]: 90.4 and 93.2
- normalized FP signal, p62 LIR tracer displacement [3, 15]: 93.6
- normalized FP signal, p62 LIR tracer displacement [4, 16]: 89.2857 and 90
- normalized FP signal, p62 LIR tracer displacement [4, 17]: 93.2857 and 94.1429
- normalized FP signal, p62 LIR tracer displacement [4, 18]: 92.8571 and 97.1429
- normalized FP signal, p62 LIR tracer displacement ([4]; log10 concentration [M] -5, listed as AN1): 95.2857 and 96.7143
- normalized FP signal, p62 LIR tracer displacement [4, 9]: 97.7143
- normalized FP signal, p62 LIR tracer displacement [4, 19]: 89.4286 and 95
- normalized FP signal, p62 LIR tracer displacement [4, 20]: 93.8571 and 97.2857
- normalized FP signal, p62 LIR tracer displacement [4, 22]: 97.1429 and 99.8571
- normalized FP signal, p62 LIR tracer displacement [4, 23]: 96 and 96.1429
- normalized FP signal, p62 LIR tracer displacement [4, 21]: 97.7143 and 93.4286
- normalized FP signal, p62 LIR tracer displacement [4, 24]: 99
- compound titration GABARAPL1 (displacement curve, FP signal) [4, 6]: 89.2857 and 90
- compound titration GABARAPL1 (displacement curve, FP signal) [4, 7]: 93.2857 and 94.1429
- compound titration GABARAPL1 (displacement curve, FP signal) [4, 8]: 92.8571 and 97.1429
- compound titration GABARAPL1 (displacement curve, FP signal) ([4]; log10 concentration [M] -5): 95.2857 and 96.7143
- FP tracer displacement curve signal (compound titration) [4, 19]: 89.4286 and 95
- FP tracer displacement curve signal (compound titration) [4, 20]: 93.8571 and 97.2857
- FP tracer displacement curve signal (compound titration) [4, 22]: 97.1429 and 99.8571
- FP tracer displacement curve signal (compound titration) [4, 23]: 96 and 96.1429
- FP tracer displacement curve signal (compound titration) [4, 21]: 97.7143 and 93.4286
- FP tracer displacement curve signal (compound titration) [4, 24]: 99
- autophagy induction (autophagy flux) [5]: significant autophagy activation
- effects on cell growth (Incucyte life cell imaging) [5]: profound effects on cell growth
